Measured values from PubChem BioAssay (NCI).
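A five-concentration, 48-hour dose response in 96-well plates underlies each endpoint, interpolated linearly between surrounding concentrations. TGI is the concentration that stops growth completely.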

Columns and labels:
Assay in all cases: NCI tumour cell line growth inhibition, 48 h
[1] = test system: MDA-N
[2] = test system: SK-MEL-2 melanoma
[3] = test system: MOLT-4 leukemia
[4] = test system: OVCAR-5 ovarian
[5] = test system: NCI-H460 lung
[6] = test system: DU-145 prostate
[7] = test system: NCI-H226 lung
[8] = test system: UACC-62 melanoma
[9] = test system: LOX IMVI melanoma
[10] = test system: SN12C renal
[11] = test system: HT29 colon
[12] = test system: MDA-MB-435
[13] = test system: T-47D breast
[14] = test system: M14 melanoma
[15] = test system: UO-31 renal
[16] = test system: OVCAR-8 ovarian
[17] = test system: TK-10 renal
[18] = test system: HCT-15 colon
[19] = test system: HCT-116 colon
[20] = test system: U251 CNS
[21] = test system: PC-3 prostate
[22] = test system: HOP-62 NSCLC
[23] = test system: OVCAR-3 ovarian
[24] = test system: MCF7 breast
[25] = test system: SF-268 CNS
[26] = test system: 786-0 renal
[27] = test system: UACC-257 melanoma
[28] = test system: MALME-3M melanoma
[29] = test system: HCC-2998 colon
[30] = test system: NCI-H522 lung
[31] = test system: HL-60(TB) leukemia
[32] = test system: ACHN renal
[33] = test system: CCRF-CEM leukemia
[34] = test system: SR leukemia
[35] = test system: K-562 leukemia
[36] = test system: OVCAR-4 ovarian
[37] = test system: BT-549 breast
[38] = test system: NCI-H23 lung
[39] = test system: IGROV1 ovarian
[40] = test system: CAKI-1 renal
[41] = test system: SK-MEL-5 melanoma
[42] = test system: A498 renal
[43] = test system: SK-MEL-28 melanoma
[44] = test system: SW-620 colon
[45] = test system: A549 NSCLC
[46] = test system: RPMI-8226 leukemia
[47] = test system: SNB-75 CNS
[48] = test system: MDA-MB-231 breast
[49] = test system: SNB-19 CNS
[50] = test system: HOP-92 NSCLC
[51] = test system: SF-539 CNS
[52] = test system: SF-295 CNS
[53] = test system: COLO 205 colon
[54] = test system: KM12 colon
[55] = test system: SK-OV-3 ovarian
[56] = test system: EKVX NSCLC
[57] = test system: RXF 393 renal
[58] = test system: NCI/ADR-RES ovarian

Which results are given for `Cc1ccc(N=NC(=O)NNc2ccc(C)c([N+](=O)[O-])c2)cc1[N+](=O)[O-]`?
TGI [1]: > 100 µM; TGI [2]: 30.3 µM; TGI [3]: 65.5 µM; TGI [4]: > 100 µM; TGI [5]: 77 µM; TGI [6]: > 100 µM; TGI [7]: > 100 µM; TGI [8]: 50.2 µM; TGI [9]: 36.7 µM; TGI [10]: > 100 µM; TGI [11]: > 100 µM; TGI [12]: > 100 µM; TGI [13]: > 100 µM; TGI [14]: > 100 µM; TGI [15]: 82.8 µM; TGI [16]: > 100 µM; TGI [17]: > 100 µM; TGI [18]: > 100 µM; TGI [19]: > 100 µM; TGI [20]: > 100 µM; TGI [21]: > 100 µM; TGI [22]: 63.5 µM; TGI [23]: 57.4 µM; TGI [24]: 69.5 µM; TGI [25]: > 100 µM; TGI [26]: 90.4 µM; TGI [27]: 88.3 µM; TGI [28]: 83.3 µM; TGI [29]: 33 µM; TGI [30]: 36.8 µM; TGI [31]: 50.4 µM; TGI [32]: 90.3 µM; TGI [33]: > 100 µM; TGI [34]: > 100 µM; TGI [35]: 50.3 µM; TGI [36]: 82.6 µM; TGI [37]: > 100 µM; TGI [38]: > 100 µM; TGI [39]: > 100 µM; TGI [40]: > 100 µM; TGI [41]: 77.7 µM; TGI [42]: 63.2 µM; TGI [43]: 77.4 µM; TGI [44]: > 100 µM; TGI [45]: > 100 µM; TGI [46]: 85.8 µM; TGI [47]: 95.9 µM; TGI [48]: > 100 µM; TGI [49]: > 100 µM

What does the source list for `CC(=O)NC(C)(C)C1CC=C(C)/C(=N\O)C1` (configuration not stated)?
TGI [1]: > 100 µM; TGI [3]: > 100 µM; TGI [4]: > 100 µM; TGI [5]: > 100 µM; TGI [6]: > 100 µM; TGI [50]: > 100 µM; TGI [8]: > 100 µM; TGI [9]: > 100 µM; TGI [10]: > 100 µM; TGI [11]: > 100 µM; TGI [12]: > 100 µM; TGI [13]: > 100 µM; TGI [14]: > 100 µM; TGI [15]: > 100 µM; TGI [51]: > 100 µM; TGI [52]: > 100 µM; TGI [16]: > 100 µM; TGI [17]: > 100 µM; TGI [18]: > 100 µM; TGI [19]: > 100 µM; TGI [20]: > 100 µM; TGI [21]: > 100 µM; TGI [22]: > 100 µM; TGI [23]: > 100 µM; TGI [53]: > 100 µM; TGI [24]: > 100 µM; TGI [25]: > 100 µM; TGI [54]: > 100 µM; TGI [26]: > 100 µM; TGI [27]: > 100 µM; TGI [29]: > 100 µM; TGI [30]: > 100 µM; TGI [31]: > 100 µM; TGI [33]: > 100 µM; TGI [34]: > 100 µM; TGI [35]: > 100 µM; TGI [36]: > 100 µM; TGI [37]: > 100 µM; TGI [38]: > 100 µM; TGI [55]: > 100 µM; TGI [39]: > 100 µM; TGI [41]: > 100 µM; TGI [56]: > 100 µM; TGI [43]: > 100 µM; TGI [44]: > 100 µM; TGI [45]: > 100 µM; TGI [47]: > 100 µM; TGI [48]: > 100 µM; TGI [49]: > 100 µM

`O=C(COc1ccc(OCC(=O)N2C(=O)CN(c3ccc(Cl)cc3)C2=S)cc1)N1C(=O)CN(c2ccc(Cl)cc2)C1=S` was tested. Which TGI [1] did it give?
The TGI was 92.5 µM.

And the TGI [2]?
Its TGI is 36.6 µM.

And the TGI [3]?
Its TGI is over 100 µM.

What about the TGI [4] of the same molecule?
The TGI was over 100 µM.

What about the TGI [5] of the same molecule?
Its TGI is 66.1 µM.

What about the TGI [6] of the same molecule?
The TGI was over 100 µM.

What about the TGI [50] of the same molecule?
The TGI was 88 µM.

What about the TGI [7] of the same molecule?
The TGI was 90.1 µM.

What about the TGI [8] of the same molecule?
Its TGI is 51.5 µM.

What about the TGI [10] of the same molecule?
The TGI was 97.9 µM.

What about the TGI [11] of the same molecule?
The TGI was 92.2 µM.

And the TGI [12]?
The TGI was over 100 µM.

And the TGI [14]?
Its TGI is over 100 µM.

What about the TGI [15] of the same molecule?
Its TGI is over 100 µM.

What about the TGI [52] of the same molecule?
Its TGI is over 100 µM.

What about the TGI [17] of the same molecule?
Its TGI is 91.5 µM.

What about the TGI [18] of the same molecule?
Its TGI is over 100 µM.

And the TGI [19]?
The TGI was 32.6 µM.

What about the TGI [20] of the same molecule?
The TGI was 83.6 µM.

And the TGI [21]?
Its TGI is over 100 µM.

What about the TGI [57] of the same molecule?
Its TGI is 67.5 µM.

What about the TGI [53] of the same molecule?
Its TGI is 64.1 µM.

And the TGI [24]?
Its TGI is over 100 µM.

And the TGI [58]?
Its TGI is over 100 µM.

And the TGI [25]?
Its TGI is 97.6 µM.

And the TGI [54]?
The TGI was 43.4 µM.

And the TGI [26]?
The TGI was 58.6 µM.

And the TGI [27]?
Its TGI is 93.2 µM.

What about the TGI [28] of the same molecule?
The TGI was over 100 µM.

What about the TGI [29] of the same molecule?
The TGI was 51.4 µM.

What about the TGI [30] of the same molecule?
Its TGI is 69.2 µM.

What about the TGI [32] of the same molecule?
Its TGI is over 100 µM.

And the TGI [35]?
Its TGI is over 100 µM.

What about the TGI [36] of the same molecule?
Its TGI is over 100 µM.

What about the TGI [37] of the same molecule?
Its TGI is over 100 µM.

And the TGI [38]?
The TGI was over 100 µM.

What about the TGI [55] of the same molecule?
The TGI was 90.3 µM.

What about the TGI [39] of the same molecule?
The TGI was over 100 µM.

What about the TGI [40] of the same molecule?
The TGI was 40.6 µM.

And the TGI [41]?
The TGI was 34.5 µM.

What about the TGI [42] of the same molecule?
The TGI was 66.8 µM.

And the TGI [56]?
Its TGI is over 100 µM.

What about the TGI [43] of the same molecule?
Its TGI is over 100 µM.

What about the TGI [44] of the same molecule?
The TGI was over 100 µM.

And the TGI [45]?
Its TGI is 78 µM.

And the TGI [46]?
Its TGI is 75.9 µM.

What about the TGI [47] of the same molecule?
The TGI was over 100 µM.

What about the TGI [48] of the same molecule?
The TGI was 57 µM.

And the TGI [49]?
Its TGI is over 100 µM.
